pIC50: −log10 of the molar value. Where two headings read alike, the source gives them in different places.
Assays:
LTA4-h [1] = biological target: T1, LTA4-h (Homo sapiens, UniProt P09960); experiment: peptidase (aminopeptidase) assay; assay type: biochemical
T1 sequence (P09960 1-611): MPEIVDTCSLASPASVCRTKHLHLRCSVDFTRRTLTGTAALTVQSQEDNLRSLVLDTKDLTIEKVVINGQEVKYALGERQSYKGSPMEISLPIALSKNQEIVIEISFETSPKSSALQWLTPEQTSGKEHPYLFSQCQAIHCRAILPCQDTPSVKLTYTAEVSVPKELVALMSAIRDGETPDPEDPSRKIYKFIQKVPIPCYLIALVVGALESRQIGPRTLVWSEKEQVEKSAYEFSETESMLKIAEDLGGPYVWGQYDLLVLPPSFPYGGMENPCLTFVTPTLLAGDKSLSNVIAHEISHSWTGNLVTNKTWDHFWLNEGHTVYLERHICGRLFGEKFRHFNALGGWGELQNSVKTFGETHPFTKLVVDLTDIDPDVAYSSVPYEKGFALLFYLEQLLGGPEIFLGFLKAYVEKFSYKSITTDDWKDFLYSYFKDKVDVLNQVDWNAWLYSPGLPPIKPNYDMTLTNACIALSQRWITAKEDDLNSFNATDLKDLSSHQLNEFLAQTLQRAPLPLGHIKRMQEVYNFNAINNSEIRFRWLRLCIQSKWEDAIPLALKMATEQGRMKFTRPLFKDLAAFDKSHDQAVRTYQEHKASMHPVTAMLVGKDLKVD
From the text: Since LTA4-h hydrolase is grouped with the M1 family of zinc metalloproteases (see, Rudberg, P. C. et al., J. Biol. Chem. 2002, Vol. 277, page 1398-1404), the compounds of the invention can be tested in the standard hydrolase and peptidase assay to determine the compounds' kinetic constants for binding to LTA4-h hydrolase and for inhibiting LTB4 synthesis (see Askonas, L. J., et al., The Journal of Pharmacology and Experimental Therapeutics 2002, 300(2): 577-582; Penning, T. D., J. Med. Chem. 2000, 43(4): 721-735; Kull, F. et al., The Journal of Biological Chemistry 1999, 274 (49): 34683-34690, the contents of which are expressly incorporated by reference herein).
(§1) The whole blood and aminopeptidase assays were performed as described in Penning et al., J. Med. Chem. 2000, 43, 721-735, and Rudberg et al., J. Biol. Chem. Vol. 279, No. 26, Issue of June 25, pp. 27376-27382, 2004, the contents of each of which are expressly incorporated by reference herein. The hydrolase assay was performed as described in U.S. Pat. No. 7,737,145, the contents of which are expressly incorporated herein.

LTA4-h [2] = biological target: T1, LTA4-h; experiment: hydrolase assay (hydrolase-homogeneous time resolved fluorescence); assay type: biochemical
From the text: The compounds of the invention can be tested for their ability to inhibit LTA4-h by various known assays and by assays described herein. For example, the compounds can be tested for their ability to inhibit LTA4-h activity by assaying the compounds in the hydrolase-homogeneous time resolved fluoroescence assay. This assay, which is a two-step assay, measures the hydrolysis of […] to LTB4 by analyzing the amount of LTB4 produced. The first step involves the enzymatic conversion of […] to LTB4 and the second step involves the quantification of the […] with a homogeneous time resolved fluoroescence assay.
as §1, with “Tables 4 to 6 below show the IC50 values for peptidase, hydrolase and whole blood assay (WBA) activity for exemplary compounds encompassed by the invention. The whole” for “The whole”

LTA4-h hydrolase = biological target: T2, LTA4-h hydrolase (Homo sapiens, UniProt P09960); experiment: whole blood assay (WBA); assay type: cell-based
T2 construct: from tissue; host or cells: whole blood
T2 sequence (P09960 1-611): T1 sequence (P09960 1-611)
From the text: Compounds of the invention can also be tested for their ability as inhibitors of LTA4-h hydrolase in the whole blood assay using human, mouse, rat or dog whole blood (see Penning, T. D. et al., J. Med. Chem. (2000), 43(4): 721-735 for a description of a human whole blood assay and a mouse whole blood assay, the contents of which are expressly incorporated herein).
as §1, with “Tables 4 to 6 below show the IC50 values for peptidase, hydrolase and whole blood assay (WBA) activity for exemplary compounds encompassed by the invention. The whole” for “The whole”

[3] = test system: ionophore-induced LTB4 production; conditions: oral administration; rat peritoneum in vivo; cited from earlier work
[4] = test system: ionophore-induced LTB4 production; conditions: oral administration; mouse blood ex vivo; cited from earlier work
colitis = conditions: eight weeks of treatment; cotton top tamarins; cited from earlier work
[5] = prefix 'r' not defined, read-out: IC50 WBA, second value given with prefix 'r'

pIC50 (LTA4-h [1]) | pIC50 (LTA4-h [2]) | pIC50 (LTA4-h hydrolase; read-out: IC50 WBA) | SMILES | also measured
6.31 | 6.55 | 6.68 | CN(Cc1ccc(C(=O)O)cc1)c1ccc(CNCc2ccc(Oc3ccc(Cl)cc3)cc2)cn1 [Compound 1] | 
7.17 | 7.16 | 6.14 | O=C(O)C1CCN(c2ccc(CNCc3ccc(Oc4ccc(Cl)cc4)cc3)cn2)CC1 [Compound 2] | pIC50 (LTA4-h hydrolase; [5]): 6.44
7.68 | 7.00 | 6.10 | O=C(O)c1ccc(Oc2ncccc2CNCc2ccc(Oc3ccc(Cl)cc3)cc2)cc1 [Compound 3] | pIC50 (LTA4-h hydrolase; [5]): 6.38
7.35 | 7.37 | 6.24 | CN(Cc1ccc(Oc2ccc(Cl)cc2)cc1)Cc1ccc(N2CCC(C(=O)O)CC2)nc1 [Compound 5] | 
 |  |  | CCOC(=O)c1ccc(Oc2ncccc2CNCc2ccc(Oc3ccc(Cl)cc3)cc2)cc1 [Compound 6] | inhibition at 1 µM (LTA4-h [1]): 18%
 |  |  | CCOC(=O)c1ccc(Oc2ncccc2CN(C)Cc2ccc(Oc3ccc(Cl)cc3)cc2)cc1 [Compound 7] | inhibition at 1 µM (LTA4-h [1]): 11%
7.11 | 7.30 | 6.54 | CN(Cc1ccc(Oc2ccc(Cl)cc2)cc1)Cc1cccnc1Oc1ccc(C(=O)O)cc1 [Compound 8] | 
 |  |  | CCOC(=O)c1ccc(Oc2ncccc2CNCc2ccc(Oc3ccc(-c4ncco4)cc3)cc2)cc1 [Compound 9] | inhibition at 1 µM (LTA4-h [1]): 45%
7.41 | 7.64 | 5.72 | O=C(O)c1ccc(Oc2ncccc2CNCc2ccc(Oc3ccc(-c4ncco4)cc3)cc2)cc1 [Compound 10] | 
 |  |  | CCOC(=O)c1ccc(Oc2ncccc2CN(C)Cc2ccc(Oc3ccc(-c4ncco4)cc3)cc2)cc1 [Compound 11] | inhibition at 1 µM (LTA4-h [1]): 17%
7.92 | 7.48 | 6.44 | CN(Cc1ccc(Oc2ccc(-c3ncco3)cc2)cc1)Cc1cccnc1Oc1ccc(C(=O)O)cc1 [Compound 12] | 
7.12 | 5.85 | 5.64 | O=C(O)c1cccc(Oc2ncccc2CNCc2ccc(Oc3ccc(-c4ncco4)cc3)cc2)c1 [Compound 13] | 
7.21 | 6.46 | 5.82 | COc1cc(C(=O)O)ccc1Oc1ncccc1CNCc1ccc(Oc2ccc(-c3ncco3)cc2)cc1 [Compound 14] | 
7.09 | 8.52 | 6.06 | Cc1c(C(=O)O)ncn1-c1ccc(CNCc2ccc(Oc3ccc(Cl)cc3)cc2)cn1 [Compound 16] | 
7.27 | 8.30 |  | O=C(O)C1CCCN(c2ccc(CNCCc3ccc(Oc4nc5ccccc5s4)cc3)cc2)C1 (stereo not shown) [Compound 17] | 
7.80 | 7.17 |  | O=C(O)C1CCCN(c2ccc(CNCCc3ccc(Oc4ncccn4)cc3)cc2)C1 (stereo not shown) [Compound 18] | 
7.35 |  |  | O=C(O)C1CCCN(c2ccc(CNCc3ccc(Oc4ccc(Cl)cc4)cc3)cc2F)C1 (stereo not shown) [Compound 19] | 
8.00 |  |  | CN(CC(=O)O)c1ccc(CNCc2ccc(Oc3ccc(Cl)cc3)cc2)cn1 [Compound 20] | 
8.70 |  |  | O=C(O)CCNc1ccc(CNCc2ccc(Oc3ccc(Cl)cc3)cc2)cn1 [Compound 21] | 
8.41 | 8.32 | 7.49 | O=C(O)C1CCCN(c2ccc(CNCc3ccc(Oc4ccc(Cl)cc4)cc3)cn2)C1 (stereo not shown) [Compound 22] | 

pIC50 (LTA4-h [1]) | pIC50 (LTA4-h [2]) | pIC50 (LTA4-h hydrolase; read-out: IC50 WBA) | SMILES | also measured
7.07 | 6.15 | 6.33 | COCCN(Cc1ccc(Oc2ccc(Cl)cc2)cc1)Cc1ccc(N2CCCC(C(=O)O)C2)nc1 (stereo not shown) [Compound 23] | 
7.55 | 6.82 |  | CN(Cc1ccc(Oc2ccc(Cl)cc2)cc1)Cc1ccc(N2CCCC(C(=O)O)C2)nc1 (stereo not shown) [Compound 24] | 
7.89 | 8.52 | 7.26 | O=C(O)C1CCCN(c2ccc(CNCc3ccc(Oc4ccc(-c5ncco5)cc4)cc3)cn2)C1 (stereo not shown) [Compound 25] | 
7.48 | 7.07 | 6.74 | CN(Cc1ccc(Oc2ccc(-c3ncco3)cc2)cc1)Cc1ccc(N2CCCC(C(=O)O)C2)nc1 (stereo not shown) [Compound 26] | 
7.32 | 6.49 | 6.29 | CN(Cc1ccc(Oc2ccc(Cl)cc2)cc1)Cc1ccc(N2CCCC(C(=O)O)C2)nc1 (stereo not shown) [Compound 27] | 
7.14 | 6.59 | 6.00 | C=CCOc1ccc(CNCc2ccc(N3CCCC(C(=O)O)C3)nc2)cc1 (stereo not shown) [Compound 28] | 
8.40 |  | 6.80 | O=C(O)C1CCCN(c2ccc(CNCc3ccc(Oc4nc5ccccc5s4)cc3)cn2)C1 (stereo not shown) [Compound 29] | 
8.30 | 9.00 | 6.92 | O=C(O)C1CCCN(c2ccc(CNCc3ccc(Oc4nc5ccccc5s4)cc3)cn2)C1 (stereo not shown) [Compound 30] | 
7.38 | 8.05 | 6.64 | O=C(O)C1CCCN(c2ccc(CNCc3ccc(OC/C=C/c4ccccc4)cc3)cn2)C1 (stereo not shown) [Compound 31] | 
8.00 | 7.43 |  | CC(C)=CCOc1ccc(CNCc2ccc(N3CCCC(C(=O)O)C3)nc2)cc1 (stereo not shown) [Compound 32] | 
8.10 | 8.10 |  | O=C(O)C1CCCN(c2ccc(CNCc3ccc(Oc4ccc5c(c4)OCO5)cc3)cn2)C1 (stereo not shown) [Compound 33] | 
7.89 | 7.07 |  | O=C(O)C1CCCN(c2ccc(CNCc3ccc(Oc4ncccn4)cc3)cn2)C1 (stereo not shown) [Compound 34] | 
7.35 | 6.96 |  | O=C(O)C1CCCN(c2ccc(CNCc3ccc(OCc4ccc(Cl)cc4)cc3)cn2)C1 (stereo not shown) [Compound 35] | 
8.15 | 7.72 |  | O=C(O)C1CCCN(c2ccc(CNCc3ccc(Oc4cnc5ccccc5n4)cc3)cn2)C1 (stereo not shown) [Compound 36] | 
7.92 |  |  | O=C(O)[C@H]1CCCN(c2ccc(CNCc3ccc(Oc4cnc5ccccc5n4)cc3)cn2)C1 [Compound 37] | 
7.80 |  |  | O=C(O)[C@@H]1CCCN(c2ccc(CNCc3ccc(Oc4cnc5ccccc5n4)cc3)cn2)C1 [Compound 38] | 
6.77 |  |  | O=C(O)C1CCCN(c2ccc(CNCc3ccc(Oc4ccc5cc(Cl)ccc5n4)cc3)cn2)C1 (stereo not shown) [Compound 39] | 
7.68 |  |  | O=C(O)C1CCCN(c2ccc(CNCc3ccc(Oc4ccc(CCO)cc4)cc3)cn2)C1 (stereo not shown) [Compound 40] | 
6.07 |  | < 5.52 | O=C(O)c1ccc(CNc2ccc(Oc3ccc(Cl)cc3)cc2)cc1 [Compound 42] | inhibition at 3 µM (LTA4-h [2]): 0%
 |  |  | CN(CCCOc1ccc(Cc2ccccc2)cc1)CCC(=O)O.Cl [SC57461] | inhibition of ionophore-induced LTB4 production [3]: caused inhibition; inhibition of ionophore-induced LTB4 production [4]: caused inhibition; colitis symptoms (colitis): significantly improved colitis symptoms

SMILES | pIC50 (LTA4-h [1]) | pIC50 (LTA4-h [2]) | pIC50 (LTA4-h hydrolase; read-out: IC50 WBA) | also measured
CN(Cc1ccc(Oc2ccc(Cl)cc2)cc1)Cc1ccc(Oc2ccc(C(=O)O)cc2)nc1 [Compound 4] | 6.52 |  | 5.68 | inhibition at 1 µM (LTA4-h [2]; at 1 uM): 47%
COCCN(Cc1ccc(Oc2ccc(Cl)cc2)cc1)Cc1ccccc1Oc1cccc(C(=O)O)c1 [Compound 15] | 6.33 |  | 5.71 | inhibition at 3 µM (LTA4-h [2]): 18%

Source: US9822106B2, “Inhibitors of leukotriene A4 hydrolase” (Celtaxsys, Inc., priority 2013, dated 2017)
